Source: patent US7816400B2 (The University of Hong Kong, priority 2007, dated 2010)
pIC50: −log10 of the molar value. Like-named read-outs stand apart in the source and are kept apart here.

Assays:
[1] = tested on: human atrial myocytes; assay: Action potential in human atrial myocytes, perforated patch, current clamp; type: cell-based
Description: Atrial cells were isolated from specimens of human right atrial appendage obtained from patients (56.1±4.7 years old) undergoing coronary artery bypass grafting. […] All patients were free from supraventricular tachyarrythmias, and the atria were grossly normal at the time of surgery. After excision, the samples were quickly immersed in oxygenated, normally Ca^2+-free cardioplegic solution for transport to the laboratory. Atrial myocytes were enzymatically dissociated as described previously (Tian et al., 2006; Gao et al., 2004). Briefly, the atrial tissue was minced, and gently agitated by continuous bubbling with 100% O2 in a Ca^2+-free Tyrode solution for 15 min (5 min at a time in fresh solutions), and then incubated for 50 min in a similar solution containing 150-200 U/ml collagenase (CLS II, Worthington Biochemical, Freehold, N.J., USA), 0.2 mg/ml protease (type XXIV, Sigma-Aldrich Chemical, St Louis, Mo., USA.) and 1 mg/ml bovine serum albumin (Sigma-Aldrich). After then, the chunks were re-incubated in a fresh enzyme solution of the same composition but no protease. The quantity and quality of isolated cells were monitored under a microscope. When the cell yield appeared optimal, the chunks were suspended in a high K medium containing (mM) 10 KCl, 120 K-glutamate, 10 KH2PO4, 1.8 MgSO4, 10 taurine, 10 HEPES, 0.5 EGTA, 20 glucose, 10 mannitol, pH was adjusted to 7.3 with KOH and gently blown with a pipette. The isolated myocytes were kept at room temperature in the medium at least 1 h before use.
A small aliquot of the solution containing the isolated cells was placed in an open perfusion chamber (1-ml) mounted on the stage of an inverted microscope. Myocytes were allowed to adhere to the bottom of the chamber for 5-10 min and were the superfused at 2-3 ml/min with Tyrode solution. Only quiescent rod-shaped cells with clear cross-striations were used. The studies were conducted at room temperature (21-22° C.) for current recording or 36° C. for action potential recording.
The whole-cell patch-clamp technique was used for electrophysiological recording. Borosilicate glass electrodes (1.2-mm OD) were pulled with a Brown-Flamming puller (model P-97, Sutter Instrument Co, Novato, Calif., USA) and had tip resistances of 2-3 MΩ when filled with pipette solution. […] A 3-M KCl-agar salt bridge was used as reference electrode. The tip potentials were compensated before the pipette touched the cell. After a giga-ohm seal was obtained, the cell membrane was ruptured by gentle suction to establish the whole-cell configuration. […] The series resistance (Rs) was 3-5 MΩ and was compensated by 50-70% to minimize voltage errors. Perforated patch configuration was used for recording action potential in human atrial cells and IKs in HEK 293 cells as described previously (Li et al., 2002b; Dong et al., 2006). Current signals were low-pass filtered at 5 kHz and stored on the hard disk of an IBM compatible computer.

[2] = target: T1, Kv1.5 (Homo sapiens, UniProt P22460); assay: Kv1.5 channel block in stably expressing HEK 293 cells; type: cell-based
T1 construct: expressed in transfected cells
T1 sequence (P22460 whole entry): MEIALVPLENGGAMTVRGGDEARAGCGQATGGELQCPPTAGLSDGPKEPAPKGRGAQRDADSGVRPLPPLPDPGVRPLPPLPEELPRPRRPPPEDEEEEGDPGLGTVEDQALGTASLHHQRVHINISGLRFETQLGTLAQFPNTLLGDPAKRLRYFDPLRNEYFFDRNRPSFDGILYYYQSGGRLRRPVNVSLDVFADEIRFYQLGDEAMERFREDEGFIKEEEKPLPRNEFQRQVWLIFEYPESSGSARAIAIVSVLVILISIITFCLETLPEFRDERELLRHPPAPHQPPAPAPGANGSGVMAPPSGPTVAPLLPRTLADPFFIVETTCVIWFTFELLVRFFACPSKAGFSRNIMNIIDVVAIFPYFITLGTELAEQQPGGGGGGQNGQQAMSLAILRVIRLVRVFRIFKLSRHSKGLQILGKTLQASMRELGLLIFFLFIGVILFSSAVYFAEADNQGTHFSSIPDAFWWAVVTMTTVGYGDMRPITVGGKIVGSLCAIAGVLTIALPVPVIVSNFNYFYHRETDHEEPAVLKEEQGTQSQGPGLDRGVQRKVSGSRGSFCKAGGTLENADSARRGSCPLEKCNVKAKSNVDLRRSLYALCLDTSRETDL
Description: The established HEK 293 cell lines stably expressing the hERG channel gene, Kv1.5 (Tang et al., 2007), or recombinant human cardiac KCNQ1/KCNE1 channel current (IKs) (Dong et al., 2006) was maintained separately in Dulbecco's modified eagle medium (Invitrogen) supplemented with 10% fetal bovine serum and containing 400 μg/ml G418 (for hERG or Kv1.5 channels) or 100 μg/ml hygromycin (for IKs).
The whole-cell patch-clamp technique was used for electrophysiological recording. Borosilicate glass electrodes (1.2-mm OD) were pulled with a Brown-Flamming puller (model P-97, Sutter Instrument Co, Novato, Calif., USA) and had tip resistances of 2-3 MΩ when filled with pipette solution. Membrane currents were recorded in voltage-clamp mode using an EPC-9 amplifier and Pulse software (HEKA, Lambrecht, Germany). A 3-M KCl-agar salt bridge was used as reference electrode. The tip potentials were compensated before the pipette touched the cell. After a giga-ohm seal was obtained, the cell membrane was ruptured by gentle suction to establish the whole-cell configuration. The cell membrane capacitance (pF) was directly measured using the lock-in module of the Pulse software, and used for normalizing the current in individual cells. The series resistance (Rs) was 3-5 MΩ and was compensated by 50-70% to minimize voltage errors. Perforated patch configuration was used for recording action potential in human atrial cells and IKs in HEK 293 cells as described previously (Li et al., 2002b; Dong et al., 2006). Current signals were low-pass filtered at 5 kHz and stored on the hard disk of an IBM compatible computer.
Other derivatives/analogs studied have no effect or a week inhibitory effect on Kv1.5.

[3] = target: hERG channels (Homo sapiens, UniProt Q12809); assay: cell-based
Sequence of hERG channels (Q12809 whole entry, the tested form may be a part): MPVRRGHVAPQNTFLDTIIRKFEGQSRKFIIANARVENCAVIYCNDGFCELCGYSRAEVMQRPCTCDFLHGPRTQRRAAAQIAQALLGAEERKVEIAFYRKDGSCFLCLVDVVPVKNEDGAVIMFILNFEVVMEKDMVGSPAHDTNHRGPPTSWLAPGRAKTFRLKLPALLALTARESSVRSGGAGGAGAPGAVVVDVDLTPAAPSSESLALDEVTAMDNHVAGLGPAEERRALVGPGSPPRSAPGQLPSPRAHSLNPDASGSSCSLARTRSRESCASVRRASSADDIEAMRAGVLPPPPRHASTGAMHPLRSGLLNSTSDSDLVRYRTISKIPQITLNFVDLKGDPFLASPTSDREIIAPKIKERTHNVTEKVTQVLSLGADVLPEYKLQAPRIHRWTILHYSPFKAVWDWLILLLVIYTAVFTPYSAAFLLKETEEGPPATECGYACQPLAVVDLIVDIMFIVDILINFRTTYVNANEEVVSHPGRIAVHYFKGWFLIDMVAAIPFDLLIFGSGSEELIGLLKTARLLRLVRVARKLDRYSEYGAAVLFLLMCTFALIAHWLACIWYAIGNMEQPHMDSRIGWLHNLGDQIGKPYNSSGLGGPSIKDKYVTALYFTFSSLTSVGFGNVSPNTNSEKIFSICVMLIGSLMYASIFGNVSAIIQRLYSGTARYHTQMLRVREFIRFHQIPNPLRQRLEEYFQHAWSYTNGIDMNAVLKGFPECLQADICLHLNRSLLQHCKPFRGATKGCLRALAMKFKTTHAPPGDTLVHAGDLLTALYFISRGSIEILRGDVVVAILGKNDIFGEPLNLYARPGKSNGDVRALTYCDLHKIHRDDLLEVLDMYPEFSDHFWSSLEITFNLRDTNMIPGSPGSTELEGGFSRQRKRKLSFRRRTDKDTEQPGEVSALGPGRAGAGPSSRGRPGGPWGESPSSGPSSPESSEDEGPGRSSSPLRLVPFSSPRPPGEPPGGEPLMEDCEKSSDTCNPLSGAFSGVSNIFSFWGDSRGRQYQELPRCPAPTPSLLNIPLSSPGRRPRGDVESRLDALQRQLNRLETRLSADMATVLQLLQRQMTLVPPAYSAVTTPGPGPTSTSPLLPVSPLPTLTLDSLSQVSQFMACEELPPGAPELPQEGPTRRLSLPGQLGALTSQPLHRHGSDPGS

[4] = tested on: isolated rabbit hearts; assay: ECG (heart rate, QTc) in isolated hypokalemic rabbit hearts, Langendorff; details: 10 μM, hypokalemic (3 mM K+) perfusion
Description: ECG was recorded with a Powerlab recording system via two electrodes placed respectively on base and apex of the heart.
The hearts were perfused using a hypokalemic (3 mM K^+) solution.

[5] = tested on: anesthetized dogs; assay: In vivo electrophysiology (atrial ERP, QTc) in anesthetized dogs; design: species or system dog; details: 5 mg/kg intraduodenal
Description: Adult mongrel dogs (12-15 kg) were anesthetized with pentobarbital (30 mg/kg i.v.), supplemented during the experiment when needed. The animal was intubated and ventilated with room air. Body temperature was maintained at 37-38° C. with a temperature control system. The left femoral vein was cannulated for maintenance of anesthesia and introducing the mono-phasic action potential (MAP) recording- and pacing-catheters (Boston Scientific Ltd) to the right atrium. The vagus nerves were isolated and divided in the neck. […] A left thoracotomy was performed in the fourth intercostal space, and the pericardium was incised to provide access to the left atrium for introducing the MAP catheter. The catheters were used for recording MAPs of right and left atria, respectively, and for measurement of effective refractory period (ERP). […] A ligation was made at the pylorus with a thick cotton thread to prevent the possible back flow of the duodenum content.
Following a 30-min equilibration period and measurement of atrial excitation threshold with 2-ms duration of stimuli, atrial ERP was determined using a train of 8 basic stimuli (S1, twice-diastolic threshold) followed by an identical premature stimulus (S2). The basic cycle lengths (BCL) of 200, 250 and 300 ms were applied in both right and left atria. S2 was initially delivered late in diastole in 5-ms decrements until a response was not elicited by the S2 indicated on the MAP recording. The ERP was defined as the longest S1-S2 interval failing a propagated response, and the procedure was repeated for three times for each measurement. MAP, ECG and blood pressure signals were continuously monitored and stored on an IBM compatible PC computer using a multiple channels data acquisition system (RM-6280C, Chengdu Instrument Ltd, Chendu, China).
The ERP measurement was then repeated every hour post drug administration for 6 hours. Excitation threshold of both right and left atria was verified before ERP each measurement. • 1.7.2.
The ERPs were determined in anesthetized dogs using the BCLs of 300, 250, and 200 ms by introducing S1-S2 via a programmed cardiac stimulator (FIG. 10A).

[6] = tested on: anesthetized dogs; assay: Experimental vagotonic AF in anesthetized dogs; type: in vivo, dog
Description: Sustained vagotonic AF was generated in anesthetized dogs by introducing two MAP catheters respectively into the right atrium and the left ventricle along with stimulation of the divided bilateral vagal nerves in the neck. […] Ventricular pacing was performed with 2 ms voltage pulses (2.5 Hz, 150% diastolic threshold) when vagal nerves were continuously stimulated. AF was generated by the BCL 100-ms S1 followed by S2, lasting for 10 min. […] The sustained AF could be repeatedly generated and terminated by stopping vagal stimulation. AF incidence and AF duration were recorded before and at different time points (0.5, 1, 1.5, 2, 3, and 4h) after intraduodenal administration of drugs.
AF was induced by S1-S2 stimulation at 100 ms BCL with bilateral vagal stimulation (see Methods & FIG. 12) at certain time points during the 0.5 to 4 h period following intraduodenal administration. AF lasted for 10 min and terminated once vagal stimulation was stopped. No AF occurrence or shortened AF duration during the continuous vagal stimulation were considered to represent prevention of AF.

[7] = HEK293, HEK 293 cells stably expressing Kv1.5, Table 3, read-out: Kv1.5 (IC50)
[8] = HEK 293 cells stably expressing Kv1.5, Table 3, read-out: Kv1.5 (IC50)
[9] = BCL 200 ms, pre-treatment (baseline)
[10] = BCL 250 ms, pre-treatment (baseline)

| Compound | effect on Kv1.5 compared with acacetin, in words ([2]; comparative study, Table 3) | pIC50 [3] | pIC50 [2, 8] | further results |
| --- | --- | --- | --- | --- |
| Nc1ccncc1 [4-AP, reference compound] | – | – | – | rate dependence of APD50, APD75, APD90 prolongation, in words ([1]; 50 μM 4-AP (data not shown)): reverse rate-dependent prolongation; action potential duration, in words ([1]; 50 μM 4-AP, 2 Hz): prolonged APD50 more than APD90 |
| COc1ccc(-c2cc(=O)c3c(O)cc(OC(C)=O)cc3o2)cc1 [A-2-11] | less effect | – | – | inhibition at 100 µM [2, 7]: < 50% |
| COc1ccc(-c2cc(=O)c3c(O)cc(OC(=O)c4ccccc4)cc3o2)cc1 [A-2-12] | less effect | – | – | inhibition at 100 µM [2, 7]: < 50% |
| COc1ccc(-c2cc(=O)c3c(O)cc(OC)cc3o2)cc1 [A-2-13] | less effect | – | – | inhibition at 100 µM ([2]; HEK293, read-out: Kv1.5 (IC50, μM)): < 50% |
| CCOc1cc(O)c2c(=O)cc(-c3ccc(OC)cc3)oc2c1 [A-2-14] | less effect | – | – | inhibition at 100 µM [2, 7]: < 50% |
| COc1ccc(C(=O)Oc2cc(O)cc3oc(-c4ccc(OC)cc4)cc(=O)c23)cc1 [A-2] | – | 5.39 | 5.69 | ion channel selectivity for Kv1.5 and hERG channels compared with acacetin, in words ([2]; comparative study, Table 3): less ion channel selectivity |
| COc1ccc(-c2cc(=O)c3ccccc3o2)cc1 [A-4] | less effect | – | 5.05 | – |
| COc1ccc(-c2cc(=O)c3cc(Cl)ccc3o2)cc1 [A-5] | less effect | 4.89 | 4.63 | – |
| COc1ccc(-c2cc(=O)c3cc(C)ccc3o2)cc1 [A-6] | less effect | – | 4.86 | – |
| Oc1cc(O)c2c(c1)O[C@H](c1ccc(O)c(O)c1)[C@@H](O)C2 [A-9] | no effects | < 4.00 | < 4.00 | – |
| CC1OC(OCC2OC(Oc3c(-c4ccc(O)c(O)c4)oc4cc(O)cc(O)c4c3=O)C(O)C(O)C2O)C(O)C(O)C1O (stereo not shown) [A-11] | no effects | < 4.00 | – | pIC50 [2]: < 4.00 |
| O=c1cc(-c2ccccc2)oc2cc(O)c(O)c(O)c12 [A-12] | no effects | < 4.00 | < 4.00 | – |
| C=C[C@H]1C[N@@]2CC[C@H]1C[C@@H]2[C@@H](O)c1ccnc2ccc(OC)cc12 [Quinidine, quinidine] | – | – | – | QTc interval of ECG, in words [4]: prolonged QTc interval; heart rate, in words [4]: slowed heart rate; QTc interval of ECG, in words ([4]; listed as quinidine): significantly increased |
| CC(C)NCC(O)c1ccc(NS(C)(=O)=O)cc1 (stereo not shown) [Sotalol, sotalol] | – | – | – | left atrial ERP (ms), BCL 200 ms ([5]; BCL 200 ms, 2 h post-treatment): 105.1 ± 5.1 ms; left atrial ERP (ms), BCL 200 ms [5, 9]: 88.8 ± 3.7 ms; right atrial ERP (ms), BCL 200 ms [5, 9]: 88.7 ± 3.9 ms; left atrial ERP (ms), BCL 250 [5, 10]: 94.3 ± 3.1 ms; right atrial ERP (ms), BCL 250 [5, 10]: 96.3 ± 8.3 ms; summarized anti-AF efficacy ([6]; 5 mg/kg intraduodenal, vehicle 0%): 60%; animals in which sustained AF was not observed ([6]; 5 mg/kg intraduodenal, vehicle: sustained AF in 100%): 40%; incidence of AF, in words ([6]; acacetin 2.5, 5, 10 mg/kg, sotalol 5 mg/kg, 1.5-2.5 h after intraduodenal administration): reduced the incidence of AF |
